{"source": "the supplement of paper PMC11061612", "assay_in_all_cases": "combination Emax (second highest fraction inhibited in the dose matrix, 72 h); higher = more inhibition; extreme values may be limits of the assay", "key": {"[1]": {"tested_on": "TGBC11TKB (Gastric Carcinoma)", "method_in_brief": "(§1)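 After 24 hours at 37°C and 5% CO2 in 1536-well plates, cells in DMEM/F12 or RPMI plus 10% FBS received two-drug dose matrices for 72 hours. Viability came from CellTiter-Glo 2.0 luminescence and was scaled as inhibition, anchored at 0 by vehicle wells and at 1 by blank wells. Combination Emax is taken as the second-highest inhibition in the matrix, and Bliss excess as the observed combination effect less EA + EB − EA·EB, with EA and EB the single-agent effects.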"}, "[2]": {"tested_on": "KLE (Endometrial Carcinoma)", "method_in_brief": "as §1"}, "RPMI-7951 (Melanoma)": {"tested_on": "RPMI-7951 (Melanoma)", "method_in_brief": "as §1"}, "[3]": {"tested_on": "KINGS-1 (Low Grade Glioma)", "method_in_brief": "as §1"}, "[4]": {"tested_on": "EBC-1 (Squamous Cell Lung Carcinoma)", "method_in_brief": "as §1"}, "[5]": {"tested_on": "SCC-9 (Oral Cavity Carcinoma)", "method_in_brief": "as §1"}, "[6]": {"tested_on": "KP-2 (Pancreatic Carcinoma)", "method_in_brief": "as §1"}, "EW-13 (Ewing's Sarcoma)": {"tested_on": "EW-13 (Ewing's Sarcoma)", "method_in_brief": "as §1"}, "[7]": {"tested_on": "SCC-3 (B-Cell Non-Hodgkin's Lymphoma)", "method_in_brief": "as §1"}, "GOTO (Neuroblastoma)": {"tested_on": "GOTO (Neuroblastoma)", "method_in_brief": "as §1"}, "[8]": {"tested_on": "OVISE (Ovarian Carcinoma)", "method_in_brief": "as §1"}, "NH-12 (Neuroblastoma)": {"tested_on": "NH-12 (Neuroblastoma)", "method_in_brief": "as §1"}, "U-87-MG (Glioblastoma)": {"tested_on": "U-87-MG (Glioblastoma)", "method_in_brief": "as §1"}, "[9]": {"tested_on": "LC4-1 (B-Lymphoblastic Leukemia)", "method_in_brief": "as §1"}, "[10]": {"tested_on": "KU-19-19 (Bladder Carcinoma)", "method_in_brief": "as §1"}, "IMR-5 (Neuroblastoma)": {"tested_on": "IMR-5 (Neuroblastoma)", "method_in_brief": "as §1"}, "[11]": {"tested_on": "NCI-N87 (Gastric Carcinoma)", "method_in_brief": "as §1"}, "[12]": {"tested_on": "KYSE-50 (Esophageal Squamous Cell Carcinoma)", "method_in_brief": "as §1"}, "[13]": {"tested_on": "MFE-319 (Endometrial Carcinoma)", "method_in_brief": "as §1"}, "[14]": {"tested_on": "LOU-NH91 (Squamous Cell Lung Carcinoma)", "method_in_brief": "as §1"}}}
{"smiles": "CN(CCO)CC[C@H](CSc1ccccc1)Nc1ccc(S(=O)(=O)NC(=O)c2ccc(N3CCC([C@@H](O)c4ccccc4-c4ccc(Cl)cc4)CC3)cc2)cc1S(=O)(=O)C(F)(F)F", "note": "[AZD4320] + C[C@@H]1COCCN1C2=NC(=NC(=C2)C3(CC3)[S@](=N)(=O)C)C4=C5C=CNC5=NC=C4 [AZD6738] (first compound max 1 µM, 7x7, partner max 10 µM)", "values": [{"measurement": "combination Emax", "setting": "[1]", "value": 0.935}, {"measurement": "combination Emax", "setting": "[2]", "value": 0.608}, {"measurement": "combination Emax", "setting": "RPMI-7951 (Melanoma)", "value": 0.951}, {"measurement": "combination Emax", "setting": "[3]", "value": 0.53}, {"measurement": "combination Emax", "setting": "[4]", "value": 0.935}, {"measurement": "combination Emax", "setting": "[5]", "value": 0.466}, {"measurement": "combination Emax", "setting": "[6]", "value": 0.897}, {"measurement": "combination Emax", "setting": "EW-13 (Ewing's Sarcoma)", "value": 0.887}, {"measurement": "combination Emax", "setting": "[7]", "value": 0.941}, {"measurement": "combination Emax", "setting": "GOTO (Neuroblastoma)", "value": 0.909}, {"measurement": "combination Emax", "setting": "[8]", "value": 0.961}, {"measurement": "combination Emax", "setting": "NH-12 (Neuroblastoma)", "value": 1}, {"measurement": "combination Emax", "setting": "U-87-MG (Glioblastoma)", "value": 0.501}, {"measurement": "combination Emax", "setting": "[9]", "value": 1}, {"measurement": "combination Emax", "setting": "[10]", "value": 0.878}, {"measurement": "combination Emax", "setting": "IMR-5 (Neuroblastoma)", "value": 1}, {"measurement": "combination Emax", "setting": "[11]", "value": 0.845}, {"measurement": "combination Emax", "setting": "[12]", "value": 0.686}, {"measurement": "combination Emax", "setting": "[13]", "value": 0.928}, {"measurement": "combination Emax", "setting": "[14]", "value": 0.575}]}
{"smiles": "COc1nnc2ccc(N3CCC(c4ccc(OCCN5CCN(C)C(=O)[C@H]5C)cc4)CC3)nn12", "note": "[AZD5153] + C[C@@H]1COCCN1C2=NC(=NC(=C2)C3(CC3)[S@](=N)(=O)C)C4=C5C=CNC5=NC=C4 [AZD6738] (first compound max 1 µM, 7x7, partner max 10 µM)", "values": [{"measurement": "combination Emax", "setting": "[1]", "value": 0.801}, {"measurement": "combination Emax", "setting": "[2]", "value": 0.737}, {"measurement": "combination Emax", "setting": "RPMI-7951 (Melanoma)", "value": 0.925}, {"measurement": "combination Emax", "setting": "[3]", "value": 0.281}, {"measurement": "combination Emax", "setting": "[4]", "value": 0.798}, {"measurement": "combination Emax", "setting": "[5]", "value": 0.45}, {"measurement": "combination Emax", "setting": "[6]", "value": 0.432}, {"measurement": "combination Emax", "setting": "EW-13 (Ewing's Sarcoma)", "value": 0.831}, {"measurement": "combination Emax", "setting": "[7]", "value": 0.986}, {"measurement": "combination Emax", "setting": "GOTO (Neuroblastoma)", "value": 0.979}, {"measurement": "combination Emax", "setting": "[8]", "value": 0.754}, {"measurement": "combination Emax", "setting": "NH-12 (Neuroblastoma)", "value": 0.938}, {"measurement": "combination Emax", "setting": "U-87-MG (Glioblastoma)", "value": 0.698}, {"measurement": "combination Emax", "setting": "[9]", "value": 0.975}, {"measurement": "combination Emax", "setting": "[10]", "value": 0.685}, {"measurement": "combination Emax", "setting": "IMR-5 (Neuroblastoma)", "value": 1}, {"measurement": "combination Emax", "setting": "[11]", "value": 0.766}, {"measurement": "combination Emax", "setting": "[12]", "value": 0.804}, {"measurement": "combination Emax", "setting": "[13]", "value": 0.785}, {"measurement": "combination Emax", "setting": "[14]", "value": 0.871}]}
{"smiles": "CN(CCO)CC[C@H](CSc1ccccc1)Nc1ccc(S(=O)(=O)NC(=O)c2ccc(N3CCC([C@@H](O)c4ccccc4-c4ccc(Cl)cc4)CC3)cc2)cc1S(=O)(=O)C(F)(F)F", "note": "[AZD4320] + CN(C)CCCOc1ccc(-c2ccc3ncc4c(c3c2)n(C2CCOCC2)c(=O)n4C)cn1 [AZD0156] (first compound max 1 µM, 7x7, partner max 1 µM)", "values": [{"measurement": "combination Emax", "setting": "[1]", "value": 0.258}, {"measurement": "combination Emax", "setting": "[2]", "value": 0.266}, {"measurement": "combination Emax", "setting": "RPMI-7951 (Melanoma)", "value": 0.333}, {"measurement": "combination Emax", "setting": "[3]", "value": 0.588}, {"measurement": "combination Emax", "setting": "[4]", "value": 0.944}, {"measurement": "combination Emax", "setting": "[5]", "value": 0.26}, {"measurement": "combination Emax", "setting": "[6]", "value": 0.897}, {"measurement": "combination Emax", "setting": "EW-13 (Ewing's Sarcoma)", "value": 0.636}, {"measurement": "combination Emax", "setting": "[7]", "value": 0.361}, {"measurement": "combination Emax", "setting": "GOTO (Neuroblastoma)", "value": 0.481}, {"measurement": "combination Emax", "setting": "[8]", "value": 0.806}, {"measurement": "combination Emax", "setting": "NH-12 (Neuroblastoma)", "value": 0.909}, {"measurement": "combination Emax", "setting": "U-87-MG (Glioblastoma)", "value": 0.165}, {"measurement": "combination Emax", "setting": "[9]", "value": 1}, {"measurement": "combination Emax", "setting": "[10]", "value": 0.098}, {"measurement": "combination Emax", "setting": "IMR-5 (Neuroblastoma)", "value": 0.608}, {"measurement": "combination Emax", "setting": "[11]", "value": 0.477}, {"measurement": "combination Emax", "setting": "[12]", "value": 0.0706}, {"measurement": "combination Emax", "setting": "[13]", "value": 0.288}, {"measurement": "combination Emax", "setting": "[14]", "value": 0.476}]}
{"smiles": "COc1nnc2ccc(N3CCC(c4ccc(OCCN5CCN(C)C(=O)[C@H]5C)cc4)CC3)nn12", "note": "[AZD5153] + CCN(CCO)CCCOc1ccc2c(Nc3cc(CC(=O)Nc4cccc(F)c4)[nH]n3)ncnc2c1 [AZD2811] (first compound max 1 µM, 7x7, partner max 1 µM)", "values": [{"measurement": "combination Emax", "setting": "[1]", "value": 0.311}, {"measurement": "combination Emax", "setting": "[2]", "value": 0.674}, {"measurement": "combination Emax", "setting": "RPMI-7951 (Melanoma)", "value": 0.613}, {"measurement": "combination Emax", "setting": "[3]", "value": 0.193}, {"measurement": "combination Emax", "setting": "[4]", "value": 0.764}, {"measurement": "combination Emax", "setting": "[5]", "value": 0.428}, {"measurement": "combination Emax", "setting": "[6]", "value": 0.401}, {"measurement": "combination Emax", "setting": "EW-13 (Ewing's Sarcoma)", "value": 0.362}, {"measurement": "combination Emax", "setting": "[7]", "value": 0.9}, {"measurement": "combination Emax", "setting": "GOTO (Neuroblastoma)", "value": 0.858}, {"measurement": "combination Emax", "setting": "[8]", "value": 0.589}, {"measurement": "combination Emax", "setting": "NH-12 (Neuroblastoma)", "value": 0.739}, {"measurement": "combination Emax", "setting": "U-87-MG (Glioblastoma)", "value": 0.603}, {"measurement": "combination Emax", "setting": "[9]", "value": 0.963}, {"measurement": "combination Emax", "setting": "[10]", "value": 0.665}, {"measurement": "combination Emax", "setting": "IMR-5 (Neuroblastoma)", "value": 1}, {"measurement": "combination Emax", "setting": "[11]", "value": 0.547}, {"measurement": "combination Emax", "setting": "[12]", "value": 0.651}, {"measurement": "combination Emax", "setting": "[13]", "value": 0.535}, {"measurement": "combination Emax", "setting": "[14]", "value": 0.743}]}
